Measurements as given in patent US12344623B2, “Thiazolopyridine derivatives as adenosine receptor antagonists” (Merck Patent GmbH, priority 2019, dated 2025).

Tests used:
Assay type in all cases: cell-based
human A3 receptor = target: T1, human A3 receptor (Homo sapiens, UniProt P0DMS8); test: Functional A3 receptor activity, recombinant CHO cells, cAMP (HTRF), forskolin, agonist IB-MECA; details: recombinant CHO cells, forskolin, agonist IB-MECA; read-out: Functional A3 receptor activity, CHO, cAMP, IC50
T1 construct: expressed in transfected cells; host or cells: CHO
T1 sequence (P0DMS8 1-318): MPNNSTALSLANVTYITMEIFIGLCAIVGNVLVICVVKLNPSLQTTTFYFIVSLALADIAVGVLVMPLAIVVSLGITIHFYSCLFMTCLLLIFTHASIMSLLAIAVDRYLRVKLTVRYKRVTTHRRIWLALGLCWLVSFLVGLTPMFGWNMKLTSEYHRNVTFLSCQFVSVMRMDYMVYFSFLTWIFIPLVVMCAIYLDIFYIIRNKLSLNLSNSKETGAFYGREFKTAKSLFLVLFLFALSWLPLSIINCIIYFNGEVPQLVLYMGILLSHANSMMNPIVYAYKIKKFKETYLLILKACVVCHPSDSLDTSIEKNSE
Experimental: (§1) The functional activities of human A2A, A2B, A1 and A3 receptors were determined by quantification of cAMP, being the second messenger for adenosine receptors.
(§2) For human A1 and A3 receptors, recombinant CHO cells, expressing either A1 or A3-receptor, were used. As both receptors couple to Gi proteins, the assay protocol was adapted:
(§3) Cells were seeded into 384-well plates, forskolin, test compounds and agonists (CPA for A1- and IB-MECA for A3-receptor) were added. After 30 min incubation, HTRF reagents (cAMP dynamic 2, Cis Bio) were added and the cellular cAMP levels were determined using the ENVISION (Perkin Elmer) plate reader. Obtained raw data were normalized against the inhibitor control and the neural control (DMSO) and the normalized data were fitted using GeneData software.

human A2A receptor = human A2A receptor (Homo sapiens, UniProt P29274); test: Functional A2A receptor activity, recombinant HEK293 cells, cAMP (HTRF), agonist NECA; parameters: expressed in transfected cells; host or cells: HEK293; details: read-out: Functional A2A receptor activity, HEK293, cAMP, IC50
Experimental: as §1, §3

human A1 receptor = target: T2, human A1 receptor (Homo sapiens, UniProt P30542); test: Functional A1 receptor activity, recombinant CHO cells, cAMP (HTRF), forskolin, agonist CPA; details: recombinant CHO cells, forskolin, agonist CPA; read-out: Functional A1 receptor activity, CHO, cAMP, IC50
T2 construct: expressed in transfected cells; host or cells: CHO
T2 sequence (P30542 1-326): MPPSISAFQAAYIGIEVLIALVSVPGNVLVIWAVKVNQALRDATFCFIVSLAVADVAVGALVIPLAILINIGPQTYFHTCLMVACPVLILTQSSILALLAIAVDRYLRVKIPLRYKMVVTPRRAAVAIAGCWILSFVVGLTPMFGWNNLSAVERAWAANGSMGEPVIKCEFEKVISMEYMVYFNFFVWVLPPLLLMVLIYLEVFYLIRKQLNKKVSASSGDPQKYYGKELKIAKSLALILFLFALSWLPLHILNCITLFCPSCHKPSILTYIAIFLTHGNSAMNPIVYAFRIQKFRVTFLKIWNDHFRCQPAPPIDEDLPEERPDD
Experimental: as §1, §2, §3

human A2B receptor = target: T3, human A2B receptor (Homo sapiens, UniProt P29275); test: Functional A2B receptor activity, recombinant HEK293 cells, cAMP (HTRF), agonist NECA; details: read-out: Functional A2B receptor activity, HEK293, cAMP, IC50
T3 construct: expressed in transfected cells; host or cells: HEK293
T3 sequence (P29275 1-332): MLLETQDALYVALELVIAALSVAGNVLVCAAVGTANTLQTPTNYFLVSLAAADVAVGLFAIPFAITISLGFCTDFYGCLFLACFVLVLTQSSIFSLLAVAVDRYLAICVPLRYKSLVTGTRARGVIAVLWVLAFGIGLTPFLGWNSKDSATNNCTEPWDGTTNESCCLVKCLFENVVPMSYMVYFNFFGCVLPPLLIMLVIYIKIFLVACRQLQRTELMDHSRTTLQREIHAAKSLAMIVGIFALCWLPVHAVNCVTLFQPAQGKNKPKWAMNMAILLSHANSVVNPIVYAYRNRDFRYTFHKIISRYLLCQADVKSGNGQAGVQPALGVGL
Experimental: as §1, §3

Sequence of human A2A receptor (P29274 whole entry): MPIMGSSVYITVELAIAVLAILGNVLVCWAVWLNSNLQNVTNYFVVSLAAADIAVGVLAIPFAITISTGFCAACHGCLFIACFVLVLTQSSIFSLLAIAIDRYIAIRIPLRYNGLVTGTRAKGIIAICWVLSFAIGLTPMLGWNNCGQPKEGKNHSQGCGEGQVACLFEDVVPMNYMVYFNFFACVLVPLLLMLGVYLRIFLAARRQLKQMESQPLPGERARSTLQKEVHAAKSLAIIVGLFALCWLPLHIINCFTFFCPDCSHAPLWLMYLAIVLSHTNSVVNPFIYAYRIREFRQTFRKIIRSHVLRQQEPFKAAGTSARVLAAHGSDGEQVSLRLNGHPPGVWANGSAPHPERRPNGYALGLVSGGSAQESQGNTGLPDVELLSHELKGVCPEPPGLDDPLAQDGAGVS

IC50 (human A3 receptor) | IC50 (human A2A receptor) | IC50 (human A1 receptor) | IC50 (human A2B receptor) | Structure (SMILES)
< 1 µM | < 0.01 µM | < 1 µM | < 0.1 µM | COc1nc(F)c(C2CCOCC2)c2sc(NC(=O)C3CC3)nc12 [Compound 28, Cyclopropanecarboxylic acid [6-fluoro-4-methoxy-7-(tetrahydro-pyran-4-yl)-thiazolo[4,5-c]pyridin-2-yl]-amide]
> 1 µM | < 0.01 µM | < 0.1 µM | < 0.01 µM | COc1nc(F)c(-c2ccccc2)c2sc(NC(=O)c3c[nH]cn3)nc12 [Compound 32, 1H-Imidazole-4-carboxylic acid (6-fluoro-4-methoxy-7-phenyl-thiazolo[4,5-c]pyridin-2-yl)-amide]
> 1 µM | < 0.01 µM | > 1 µM | < 0.1 µM | COc1nc(F)c(C2CCOCC2)c2sc(NC(=O)N3CCC4(CCOC4)C3)nc12 (stereo not shown) [Compound 33, N-[6-fluoro-4-methoxy-7-(oxan-4-yl)-[1,3]thiazolo[4,5-c]pyridin-2-yl]-2-oxa-7-azaspiro[4.4]nonane-7-carboxamide]
> 1 µM | < 0.01 µM | > 1 µM | < 0.1 µM | COc1nc(F)c(C2CCOCC2)c2sc(NC(=O)N3CC[C@]4(CCCOC4)C3)nc12 [Compound 34, (R)-7-Oxa-2-aza-spiro[4.5]decane-2-carboxylic acid [6-fluoro-4-methoxy-7-(tetrahydro-pyran-4-yl)-thiazolo[4,5-c]pyridin-2-yl]-amide]
> 1 µM | < 0.1 µM | > 1 µM | < 0.1 µM | COc1ncc(C2=CC(=O)CC2)c2sc(NC(=O)N3CCC4(CCOCC4)C3)nc12 [Compound 40, 8-Oxa-2-aza-spiro[4.5]decane-2-carboxylic acid [4-methoxy-7-(3-oxo-cyclopent-1-enyl)-thiazolo[4,5-c]pyridin-2-yl]-amide]
> 1 µM | < 0.01 µM | < 1 µM | < 0.1 µM | COc1ncc(C2=CCOC2)c2sc(NC(=O)c3c[nH]cn3)nc12 [Compound 43, N-[7-(2,5-dihydrofuran-3-yl)-4-methoxy-[1,3]thiazolo[4,5-c]pyridin-2-yl]-1H-imidazole-4-carboxamide]
> 1 µM | < 0.1 µM | > 1 µM | < 0.1 µM | COc1ncc(C2=CCOC2)c2sc(NC(=O)N3CCC4(CCOCC4)C3)nc12 [Compound 44, N-[7-(2,5-dihydrofuran-3-yl)-4-methoxy-[1,3]thiazolo[4,5-c]pyridin-2-yl]-8-oxa-2-azaspiro[4.5]decane-2-carboxamide]
> 1 µM | < 0.1 µM | > 1 µM | < 0.1 µM | COc1ncc(C2=CCOC2)c2sc(NC(=O)N3CCC4(CCCOC4)C3)nc12 (stereo not shown) [Compound 45, N-[7-(2,5-dihydrofuran-3-yl)-4-methoxy-[1,3]thiazolo[4,5-c]pyridin-2-yl]-7-oxa-2-azaspiro[4.5]decane-2-carboxamide]
< 1 µM | < 0.01 µM | < 1 µM | < 0.01 µM | COc1ncc(-c2ccccc2)c2sc(NC(=O)c3c[nH]cn3)nc12 [Compound 60, 1H-Imidazole-4-carboxylic acid (4-methoxy-7-phenyl-thiazolo[4,5-c]pyridin-2-yl)-amide]
> 1 µM | < 0.01 µM | > 1 µM | < 0.1 µM | COc1ncc(C2CCCCC2)c2sc(NC(=O)N3CCC4(CCOCC4)C3)nc12 [Compound 62, 8-Oxa-2-aza-spiro[4.5]decane-2-carboxylic acid (7-cyclohexyl-4-methoxy-thiazolo[4,5-c]pyridin-2-yl)-amide]
> 1 µM | < 0.01 µM | < 1 µM | < 0.01 µM | COc1ncc(C2=CCSCC2)c2sc(NC(=O)N3CCC4(CCOCC4)C3)nc12 [Compound 64, 8-Oxa-2-aza-spiro[4.5]decane-2-carboxylic acid [7-(3,6-dihydro-2H-thiopyran-4-yl)-4-methoxy-thiazolo[4,5-c]pyridin-2-yl]-amide]
> 1 µM | < 0.01 µM | < 1 µM | < 0.1 µM | COc1ncc(-c2csc(C)n2)c2sc(NC(=O)N3CCC4(CCOCC4)C3)nc12 [Compound 67, 8-Oxa-2-aza-spiro[4.5]decane-2-carboxylic acid [4-methoxy-7-(2-methyl-thiazol-4-yl)-thiazolo[4,5-c]pyridin-2-yl]-amide]
> 1 µM | < 0.01 µM | > 1 µM | < 1 µM | COc1ncc(C2=CCC(OC)CC2)c2sc(NC(=O)N3CC[C@]4(CCCOC4)C3)nc12 (stereo partly drawn) [Compound 70, (5R)-N-[4-methoxy-7-(4-methoxycyclohex-1-en-1-yl)-[1,3]thiazolo[4,5-c]pyridin-2-yl]-7-oxa-2-azaspiro[4.5]decane-2-carboxamide]
> 1 µM | < 0.01 µM | > 1 µM | < 0.1 µM | COc1ncc(C2COCCO2)c2sc(NC(=O)N3CCC4(CCOCC4)C3)nc12 (stereo not shown) [Compound 73, 8-Oxa-2-aza-spiro[4.5]decane-2-carboxylic acid (7-[1,4]dioxan-2-yl-4-methoxy-thiazolo[4,5-c]pyridin-2-yl)-amide]
> 1 µM | < 0.01 µM | > 1 µM | < 0.1 µM | COc1ncc(-c2cnn(Cc3ccncc3)c2)c2sc(NC(=O)N3CCC4(CCOCC4)C3)nc12 [Compound 75, 8-Oxa-2-aza-spiro[4.5]decane-2-carboxylic acid [4-methoxy-7-(1-pyridin-4-ylmethyl-1H-pyrazol-4-yl)-thiazolo[4,5-c]pyridin-2-yl]-amide]
> 1 µM | < 0.01 µM | < 0.1 µM | < 0.01 µM | COc1ncc(-c2cnn(Cc3ccccc3)c2)c2sc(NC(=O)N3CCC4(CCOCC4)C3)nc12 [Compound 76, 8-Oxa-2-aza-spiro[4.5]decane-2-carboxylic acid [7-(1-benzyl-1H-pyrazol-4-yl)-4-methoxy-thiazolo[4,5-c]pyridin-2-yl]-amide]
> 1 µM | < 0.01 µM | > 1 µM | < 1 µM | COc1ncc(C2=CCC(OC)CC2)c2sc(NC(=O)N3CC[C@@]4(CCCOC4)C3)nc12 (stereo partly drawn) [Compound 77, (5S)-N-[4-methoxy-7-(4-methoxycyclohex-1-en-1-yl)-[1,3]thiazolo[4,5-c]pyridin-2-yl]-7-oxa-2-azaspiro[4.5]decane-2-carboxamide]
> 1 µM | < 0.01 µM | > 1 µM | < 1 µM | COc1ncc(-c2ccc(=O)[nH]c2)c2sc(NC(=O)N3CCC4(CCOCC4)C3)nc12 [Compound 78, 8-Oxa-2-aza-spiro[4.5]decane-2-carboxylic acid [4-methoxy-7-(6-oxo-1,6-dihydro-pyridin-3-yl)-thiazolo[4,5-c]pyridin-2-yl]-amide]
> 1 µM | < 0.01 µM | < 1 µM | < 0.1 µM | COc1ncc(-c2cnn(C(F)F)c2)c2sc(NC(=O)N3CCC4(CCOCC4)C3)nc12 [Compound 79, 8-Oxa-2-aza-spiro[4.5]decane-2-carboxylic acid [7-(1-difluoromethyl-1H-pyrazol-4-yl)-4-methoxy-thiazolo[4,5-c]pyridin-2-yl]-amide]
